In publication PMC11157491, “Novel Alaninamide Derivatives with Drug-like Potential for Development as Antiseizure and Antinociceptive Therapies—In Vitro and In Vivo Characterization” (ACS Chemical Neuroscience, 2024):

Assays:
[1] = test system: mice; test: 6 Hz (32 mA) psychomotor seizure model; assay type: in vivo; conditions: Mus musculus, ip; for responders at 100 mg/kg: 100 mg/kg i.p., 0.5 h; for ED50: mice, pretreatment 0.5 h
Description: (§1) Identification and profiling of new ASM candidate compounds are still largely based on predictive animal models of seizures/epilepsy, while a range of in silico and in vitro approaches (i.e., molecular modeling or high throughput screening, etc.) are increasingly used in the early stages of ASM discovery.[31] The Epilepsy Therapy Screening Program (ETSP) of the National Institute of Neurological Disorders and Stroke (NIH, Bethesda, MD) has enabled the discovery of several approved ASMs by focusing on the in vivo testing of compounds synthesized by both academic laboratories and industry.[32] The ETSP provides a broad panel of seizure tests (ca. 30 rodent models), but a subset of them is used for the initial screening of new compounds with potential antiseizure activity. The routinely used seizure models include: (i) the MES test, which is an experimental model of tonic–clonic seizures, (ii) the 6 Hz model (32 mA) of focal seizures, and (iii) the scPTZ model of generalized absence or myoclonic seizures.[33],[34] Consequently, in the current studies, all final compounds 21–36 and 45–48 were initially studied in the MES and the 6 Hz (32 mA) seizure models after intraperitoneal (i.p.) administration at a screening dose of 100 mg/kg in mice at a time point of 0.5 h (the screening group consisted of four mice, and the results obtained are summarized in Table S1).
(§2) These parameters were then used to calculate the protective indexes (PIs, PI = TD50/ED50), which describe the therapeutics window of potential drug candidates. The ED50, TD50, and PI values for the tested compounds together with data of their chemical prototypes KA-11 and KJ-5 and reference ASMs are summarized in Table 2.
(§3) The adult male Albino Swiss mice weighed between 22 and 26 g were used in the in vivo studies. They were housed under standardized housing conditions in colony cages and had free access to food as well as tap water. The animals were left to adapt under laboratory conditions for 7 days. All procedures involving animals and their care were performed in accordance with the current European Community and Polish legislation on animal experimentation.
(§4) In the initial screening studies, four mice per group were randomly assigned to each experimental group (each mouse was used only once). To evaluate the ED50 or TD50 values, four groups consisting of eight animals were injected with various doses of tested compounds. The protective indexes (PIs) for the compounds investigated and reference ASMs were calculated by dividing the TD50 value, as determined in the chimney test, by the respective ED50 value, as determined in the MES, scPTZ, or 6 Hz (32 or 44 mA) tests (PI = TD50/ED50). The PIs are a measure of the potential therapeutic window of the tested agent.
(§5) All substances were suspended in Tween 80 (1% aqueous solution) and administered i.p. as a single injection at a dose of 10 mL/kg. On each day of experimentation, fresh solutions were prepared. The detailed in vivo procedures are described elsewhere: the maximal electroshock seizure test (MES),[60] the subcutaneous pentylenetetrazole seizure test (scPTZ),[61] the 6 Hz psychomotor seizure model (32 and 44 mA),[62] and the chimney test.[63] The reference ASMs were purchased from commercial suppliers: VPA (Sigma-Aldrich, St. Louis, MO), LCS, and LEV (UCB Pharma, Braine l’Alleud, Belgium).

[2] = molecular target: T1, TRPV1 (VR1) (h) (Homo sapiens, UniProt Q8NER1); test: TRPV1 antagonist effect functional assay; assay type: cell-based; conditions: human recombinant CHO cells; for inhibition at 10 µM: read-out: % inhibition of control agonist response
T1 construct: Eurofins (contract assay)
T1 sequence (Q8NER1 whole entry): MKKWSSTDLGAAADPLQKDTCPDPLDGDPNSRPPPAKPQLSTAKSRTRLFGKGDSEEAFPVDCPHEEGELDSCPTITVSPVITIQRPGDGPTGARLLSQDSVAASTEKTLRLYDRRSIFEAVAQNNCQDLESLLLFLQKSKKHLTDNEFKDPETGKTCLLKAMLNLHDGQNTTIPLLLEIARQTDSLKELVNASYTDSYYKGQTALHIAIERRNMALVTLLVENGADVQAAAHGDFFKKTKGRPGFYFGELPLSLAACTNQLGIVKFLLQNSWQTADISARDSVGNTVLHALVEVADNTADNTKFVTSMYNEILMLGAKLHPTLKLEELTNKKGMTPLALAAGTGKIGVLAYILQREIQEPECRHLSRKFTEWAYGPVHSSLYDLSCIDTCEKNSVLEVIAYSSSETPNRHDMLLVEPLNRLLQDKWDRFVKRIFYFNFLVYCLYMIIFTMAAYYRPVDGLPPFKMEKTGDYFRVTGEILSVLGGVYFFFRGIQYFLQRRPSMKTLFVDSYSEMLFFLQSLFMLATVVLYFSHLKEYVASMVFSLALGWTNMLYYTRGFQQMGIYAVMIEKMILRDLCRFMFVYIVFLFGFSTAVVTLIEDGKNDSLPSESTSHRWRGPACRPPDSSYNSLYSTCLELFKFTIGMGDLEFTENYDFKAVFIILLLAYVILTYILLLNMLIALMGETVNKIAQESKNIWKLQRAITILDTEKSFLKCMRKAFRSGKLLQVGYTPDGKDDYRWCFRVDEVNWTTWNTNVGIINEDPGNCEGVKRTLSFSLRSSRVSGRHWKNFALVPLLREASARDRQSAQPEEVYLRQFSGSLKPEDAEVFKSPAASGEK
Description: For many years, the TRPV1 channel, permeable to calcium and sodium ions, has been recognized as a promising molecular target for novel analgesics.[19] […] Therefore, bearing in mind the involvement of TRPV1 in pain sensation and potentially in seizure induction, in the next step of the in vitro studies, the TRPV1 antagonist activity was determined for all compounds obtained (Table 6).
Binding/functional studies were carried out commercially in Eurofins Laboratories (Poitiers, France) and Eurofins Panlabs Discovery Services Taiwan, Ltd. (New Taipei City, Taiwan) using testing procedures that were reported previously (for details, see Table S2).
Table S2. Radioligand binding and functional assays. […]
TRPV1 (VR1) (h) (antagonist effect) […]
Assays were performed commercially in Eurofins Laboratories ( Poitiers, France) or Eurofins Panlabs Discovery Services
Taiwan, Ltd. (New Taipei City, Taiwan).

[3] = test system: mice; test: Maximal electroshock (MES) seizure test; assay type: in vivo; conditions: for responders at 100 mg/kg / ED50: Mus musculus, ip; for responders at 100 mg/kg / antiseizure protection in MES screening: 100 mg/kg i.p., 0.5 h; for responders at 100 mg/kg: read-out: MES: number of mice protected/number of mice tested (converted); for antiseizure protection in MES screening: four mice; for ED50: mice, pretreatment 0.5 h
Description: as §1, §2, §3, §4, §5

[4] = test system: mice; test: Subcutaneous pentylenetetrazole (scPTZ) seizure test; assay type: in vivo; conditions: for protection in scPTZ screening / scPTZ: number of mice protected/number of mice tested: 100 mg/kg i.p.; for scPTZ: number of mice protected/number of mice tested: 0.5 h
Description: as §2, §4, §5

[5] = four mice, read-out: protection in 6 Hz (32 mA) screening
[6] = read-out: 6 Hz (32 mA): number of mice protected/number of mice tested (converted)

Row | SMILES | melting point [°C] | inhibition at 10 µM [2] [%] | Kb [2] [µM] | responders at 100 mg/kg [1, 5] [%] | responders at 100 mg/kg [1, 6] [%] | responders at 100 mg/kg [3] [%] | protection in scPTZ screening [4] | scPTZ: number of mice protected/number of mice tested [4] | ED50 [1] [mg/kg] | antiseizure protection in MES screening [3] [%] | ED50 [3] [mg/kg] | ED50 ([4]; Mus musculus, ip, mice) [mg/kg]
1 | CC(=O)NC(C)C(=O)N1CCN(c2cc(Cl)cc(Cl)c2)CC1 (centres unmarked) [Compound 25, N-(1-(4-(3,5-Dichlorophenyl)piperazin-1-yl)-1-oxopropan-2-yl)acetamide] | 164.6 to 165.4 | 8.1 | – | 75 | 75 | 75 | 50% | 2/4 | 56.1 | 75 | 52.9 | –
2 | CC(NC(=O)c1ccccc1)C(=O)N1CCN(c2cccc(C(F)(F)F)c2)CC1 (centres unmarked) [Compound 32, N-(1-oxo-1-(4-(3-(Trifluoromethyl)phenyl)piperazin-1-yl)propan-2-yl)benzamide] | 165.8 to 166.5 | -16.1 | – | 25 | 25 | 0 | – | – | – | – | – | –
3 | CCNC(=O)NC(C)C(=O)N1CCN(c2cccc(Cl)c2)CC1 (centres unmarked) [Compound 33, 1-(1-(4-(3-Chlorophenyl)piperazin-1-yl)-1-oxopropan-2-yl)-3-ethylurea] | 145.1 to 146.2 | -11.7 | – | – | 50 | 0 | – | – | – | – | – | –
4 | CCNC(=O)NC(C)C(=O)N1CCN(c2cccc(C(F)(F)F)c2)CC1 (centres unmarked) [Compound 34, 1-Ethyl-3-(1-oxo-1-(4-(3-(trifluoromethyl)phenyl)piperazin-1-yl)propan-2-yl)urea] | 136.4 to 137.3 | -5.3 | – | – | 50 | 0 | – | – | – | – | – | –
5 | CC(C)NC(=O)NC(C)C(=O)N1CCN(c2cccc(Cl)c2)CC1 (centres unmarked) [Compound 35, 1-(1-(4-(3-Chlorophenyl)piperazin-1-yl)-1-oxopropan-2-yl)-3-isopropylurea] | 147.4 to 148.2 | -11.9 | – | – | 50 | 0 | – | – | – | – | – | –
6 | CC(C)NC(=O)NC(C)C(=O)N1CCN(c2cccc(C(F)(F)F)c2)CC1 (centres unmarked) [Compound 36, 1-Isopropyl-3-(1-oxo-1-(4-(3-(trifluoromethyl)phenyl)piperazin-1-yl)propan-2-yl)urea] | 144.5 to 145.4 | -13.6 | – | 25 | 25 | 25 | – | – | – | 25 | – | –
7 | CC(=O)NC(C)C(=O)NC1CCN(c2ccccc2)C1 (centres unmarked) [Compound 45, 2-Acetamido-N-(1-phenylpyrrolidin-3-yl)propanamide] | 176.6 to 177.8 | -11.6 | – | – | 0 | 0 | – | – | – | – | – | –
8 | CC(=O)NC(C)C(=O)NC1CCN(c2cccc(C(F)(F)F)c2)C1 (centres unmarked) [Compound 46, 2-Acetamido-N-(1-(3-(trifluoromethyl)phenyl)pyrrolidin-3-yl)propanamide] | 162.8 to 163.7 | -10 | – | – | 0 | 0 | – | – | – | – | – | –
9 | CC(=O)NC(C)C(=O)NC1CCN(c2cccc(OC(F)(F)F)c2)C1 (centres unmarked) [Compound 47, 2-Acetamido-N-(1-(3-(trifluoromethoxy)phenyl)pyrrolidin-3-yl)propanamide] | 164.8 to 165.9 | -8.3 | – | 50 | 50 | 0 | – | – | – | – | – | –
10 | CC(=O)NC(C)C(=O)NC1CCN(c2cccc(SC(F)(F)F)c2)C1 (centres unmarked) [Compound 48, 2-Acetamido-N-(1-(3-((trifluoromethyl)thio)phenyl)pyrrolidin-3-yl)propanamide] | 162.2 to 163.3 | 4.2 | – | 50 | 50 | 0 | – | – | – | – | – | –

Second part, led by results:

Row | melting point [°C] | inhibition at 10 µM [2] [%] | Kb [2] [µM] | SMILES | responders at 100 mg/kg [1, 5] [%] | responders at 100 mg/kg [1, 6] [%] | responders at 100 mg/kg [3] [%] | protection in scPTZ screening [4] | scPTZ: number of mice protected/number of mice tested [4] | ED50 [1] [mg/kg] | antiseizure protection in MES screening [3] [%] | ED50 [3] [mg/kg] | ED50 ([4]; Mus musculus, ip, mice) [mg/kg]
11 | 113.6 to 114.9 | 1.6 | – | CC(=O)NC(C)C(=O)N1CCN(c2ccccc2)CC1 (centres unmarked) [Compound 21, N-(1-oxo-1-(4-Phenylpiperazin-1-yl)propan-2-yl)acetamide] | 25 | 25 | 0 | – | – | – | – | – | –
12 | 125.8 to 126.5 | 12.5 | – | CC(=O)NC(C)C(=O)N1CCN(c2cccc(Cl)c2)CC1 (centres unmarked) [Compound 22, N-(1-(4-(3-Chlorophenyl)piperazin-1-yl)-1-oxopropan-2-yl)acetamide] | 75 | 75 | 100 | 25% | 1/4 | 77.3 | 100 | 122 | –
13 | 144.9 to 145.8 | -4.6 | – | CC(=O)NC(C)C(=O)N1CCN(c2ccc(Cl)cc2)CC1 (centres unmarked) [Compound 23, N-(1-(4-(4-Chlorophenyl)piperazin-1-yl)-1-oxopropan-2-yl)acetamide] | – | 0 | 0 | – | – | – | – | – | –
14 | 152.1 to 152.9 | 51.5 | 4.5 | CC(=O)NC(C)C(=O)N1CCN(c2ccc(Cl)c(Cl)c2)CC1 (centres unmarked) [Compound 24, N-(1-(4-(3,4-Dichlorophenyl)piperazin-1-yl)-1-oxopropan-2-yl)acetamide] | 100 | 100 | 75 | 75% | 3/4 | 41.4 | 75 | > 150 | 116
15 | 132.8 to 133.3 | -15.9 | – | CC(=O)NC(C)C(=O)N1CCN(c2ccc(C(F)(F)F)cc2)CC1 (centres unmarked) [Compound 27, N-(1-oxo-1-(4-(4-(Trifluoromethyl)phenyl)piperazin-1-yl)propan-2-yl)acetamide] | – | 0 | 25 | – | – | – | 25 | – | –
16 | 133.6 to 134.3 | 104 | 4.2 | CC(=O)NC(C)C(=O)N1CCN(c2cccc(Oc3ccccc3)c2)CC1 (centres unmarked) [Compound 29, N-(1-oxo-1-(4-(3-Phenoxyphenyl)piperazin-1-yl)propan-2-yl)acetamide] | 75 | 75 | 100 | no activity | 0/4 | 41.2 | – | 39.9 | –
17 | 177.8 to 178.5 | 4.6 | – | CC(NC(=O)c1ccccc1)C(=O)N1CCN(c2cccc(Cl)c2)CC1 (centres unmarked) [Compound 31, N-(1-(4-(3-Chlorophenyl)piperazin-1-yl)-1-oxopropan-2-yl)benzamide] | – | 0 | 0 | – | – | – | – | – | –
